Experimental data published in patent US6251900A, “Heterocyclic compounds and antitumor agent containing the same as active ingredient” (Zenyaku Kogyo Kabushiki Kaisha, priority 1997, dated 2001).

Assays:
[1] = tested on: M5076 mouse reticulum cell sarcoma cells; test: Tumor growth inhibition, M5076 mouse reticulum cell sarcoma transplanted subcutaneously in BDF1 mice (Test 2); format: in vivo; details: abdominally administered for 9 days, tumor weight on day 21
Experimental: The treated group to which the test sample was administered consisted of seven mice while the control group consisted of ten mice. Six weeks old male mice (BDF1, 25±2.5 g) were employed as host animals.
M5076 mouse reticulum cell sarcoma cells routinely cultured in abdominal of C57BL/6 male mice were diluted with cold Hanks solution and 1.0×10^6 cells of them were transplanted subcutaneously into left breast of each mouse. The samples prepared by suspending test compounds in 1% hydroxypropyl cellulose (HPC) were abdominally administered for 9 days after the day after the transplantation. After 21 days passed from the transplantation of the tumor, the mice were killed and the tumors were extracted out to measure the tumor weights of the respective groups.
Effect of sample was calculated as tumor growth inhibition by the following formula:
Tumor Growth Inhibition (%)=(1-T/C)×100
T: tumor weight of group with sample administered
C: tumor weight of control group

[2] = tested on: MCF-7 cells; test: Growth inhibition of MCF-7 human breast cancer cells, 72 h culture (Test 1); format: cell-based; details: MCF7, 37° C., read-out: 50% Growth inhibition concentrations (GI50)
Experimental: Used in the test were MCF-7 cells which were established from human breast cancer and were cultured routinely under the conditions of 37° C. and 5% CO2, in RPMI 1640 medium supplemented with 10% fetal calf serum, HEPES buffer solution (25 mM) and kanamycin (0.1 mg/ml). Single cell suspension was prepared by adding trypsin/EDTA to the medium so as to be adjusted to 4.0×10^4 cells/ml. Test compounds were dissolved or suspended in DMSO or RPMI 1640 medium at a concentration of 1.0×10^-4 -1.0×10^-9 M.
The cell suspension and the sample solution or suspension were filled in a 96-wells microplate at a rate of 0.1 ml of the former and 0.1 ml of the latter per well and cultured at 37° C. for 72 hours in 5% CO2.
50% Growth inhibition concentrations (GI50 μM) were calculated from growth inhibitions at various sample concentrations.

[3] = Acute toxicity in BDF1 male mice (Test 3); details: mouse, in vivo, po, orally or abdominally administered, observation for 14 days
Experimental: The acute toxicity was determined by orally or abdominally administrating the compound 9 or 22 of the present invention, which was adjusted by distilled water added with 1% of hydroxypropyl cellulose, to BDF1 male mice (6-weeks-old, having a body weight of 25±2.5 g) and LD50 was obtained over observation for 14 days. As a result, it was found out that LD50 of any of the compounds was 400-800 mg/kg.

Row | Compound | Tumor Growth Inhibition (%) ([1]; 200 mg/kg) | GI50 [2] | LD50 at 336 h [3] | Tumor Growth Inhibition (%) ([1]; 100 mg/kg) | Tumor Growth Inhibition (%) ([1]; 70 mg/kg)
1 | C[C@@H]1OCCN(c2nc(N3CCOCC3)nc(-n3cnc4ccccc43)n2)[C@H]1C (relative stereo) [compound 9, 2-(benzimidazol-1-yl)-4-(trans-2,3-dimethylmorpholino)-6-morpholino-1,3,5-triazine] | 98.6% | 1200 nM | 400 to 800 mg/kg |  | 
2 | C[C@@H]1OCCN(c2cc(N3CCOCC3)nc(-n3cnc4ccccc43)n2)[C@H]1C (relative stereo) [compound 22, 2-(benzimidazol-1-yl)-4-(trans-2,3-dimethylmorpholino)-6-morpholinopyrimidine] |  | 2200 nM | 400 to 800 mg/kg | 83.8% | 
3 | C[C@@H]1CN(c2nc(N3CCOCC3)nc(-n3cnc4ccccc43)n2)C[C@H](C)O1 [compound 1, 2-(benzimidazol-1-yl)-4-(cis-2,6-dimethyl-morpholino)-6-morpholino-1,3,5-triazine] | 94.7% | 2900 nM |  |  | 
4 | CC1(C)CN(c2nc(N3CCOCC3)nc(-n3cnc4ccccc43)n2)CCO1 [compound 11, 2-(benzimidazol-1-yl)-4-(2,2-dimethylmorpholino)-6-morpholino-1,3,5-triazine] | 88.3% | 1700 nM |  |  | 
5 | C[C@@H]1CN(c2cc(N3CCOCC3)nc(-n3cnc4ccccc43)n2)C[C@H](C)O1 [compound 19, 2-(benzimidazol-1-yl)-4-(cis-2,6-dimethyl-morpholino)-6-morpholinopyrimidine] | 98.1% | 3200 nM |  |  | 
6 | c1cn(-c2nc(N3CCOCC3)nc(N3CCOCC3)n2)cn1 [compound A, 2-(imidazol-1-yl)-4,6-dimorpholino-1,3,5-triazine, reference compound] |  | 20000 nM |  |  | 5.0%
7 | CN(C)c1nc(N(C)C)nc(N(C)C)n1 [compound B, hexamethylmelamine, reference compound] |  | > 100000 nM |  | 38.8% | 
